Reference: ChEMBL document CHEMBL3507680, “University of Dundee, Gates Library screen for HepG2 cell viability”

Assay: Human HepG2 cell viability assay in 384 well format
Format: toxicity, cell-based
Design: dose 125 nL, time 70.5 hour; cytotoxicity at 70.5 h: concentration not given beside the values
Conditions: HepG2 cells, read-out: Inhibition

Row | Structure (SMILES) | cytotoxicity at 70.5 h
1 | O=C(c1ccnnc1)N1CCN(Cc2ccncc2)c2ncccc2C1 | -6.87%
2 | Cc1ncc(CN2CCOC(c3ccc(-c4cnn(C)c4)cn3)C2)s1 (stereo not given) | -6.63%
3 | Cc1cc(CN2CCN(CC(O)C(C)(C)C)CC2)no1 (stereo not given) | 9.4%
4 | O=C(O)c1cccc(CC2CCN(c3cnccn3)CC2)c1 | -2.92%
5 | Cc1ccc(C(=O)N2C[C@@H]3OCCN(C)[C@@H]3C2)cn1 | -2.77%
6 | CCOc1ccccc1C(=O)Nn1c(C)cc(C)cc1=O | -6.5%
7 | Cc1nn(C)c2c(NCc3ccncc3)nc(C3CC3)nc12 | 3.06%
8 | N#Cc1ccc(OC2CCN(C(=O)c3ccccc3Cl)CC2)nc1 | -5.83%
9 | Cc1cc(NC(=O)CO)nn1-c1ccc(Cl)cc1Cl | 4.81%
10 | Cn1nc(COCC2CC2)c2c1CN(C(=O)c1ccno1)CC2 | -9.87%
11 | CCOCCCNc1nc(CS(=O)(=O)c2ccccc2)cs1 | -6.56%
12 | Cc1nc(C2CCCN2CC(=O)NCCOc2ccccc2)no1 (stereo not given) | 0.566%
13 | c1cncc(CN2CCOC(c3ncn4c(C5CC5)cccc34)C2)c1 (stereo not given) | -3.57%
14 | c1cncc(CN2CCCC3(COCCN(c4nccs4)C3)C2)c1 (stereo not given) | -5.78%
15 | c1cncc(COC[C@H]2CC[C@H]3[C@H](CCN3Cc3cccs3)O2)c1 | 2.81%
16 | Cc1csc(CNC(=O)NCCc2ccc3c(c2)OCCO3)n1 | 20.8%
17 | OC1CCN(CCCNc2nccc(C3CCCC3)n2)CC1 | -2.73%
18 | Cc1c(C(=O)N2CCCC(O)(CN(C)C)CC2)c2cc(O)ccc2n1C (stereo not given) | 13.3%
19 | O=C1CCC2(CCCN(C(=O)NCc3ccccc3)CC2)N1 (stereo not given) | -8.58%
20 | Cc1nc[nH]c1CN1C[C@@H]2CC[C@H](C1)N(C(=O)c1cnn(C)c1)C2 | 7.73%
21 | O=C(O)[C@@]12CN(c3cnccn3)C[C@@H]1CN(C1CCOCC1)C2 | -4.6%
22 | Cc1noc(-c2c[nH]nc2C2CCCN2C(=O)c2ccccc2)c1C (stereo not given) | -4.46%
23 | Cc1nc(C2CCCN2Cc2cc(=O)n(C)c(=O)n2C)no1 (stereo not given) | -1.72%
24 | CNc1ccccc1C(=O)N(C)CCc1ccccc1 | -5.46%
25 | CCOC(=O)C1CN(C(=O)COC)Cc2ncn(CC)c21 (stereo not given) | -5.03%
26 | COc1cc(NC(=O)N2CCCC2c2ccco2)cc(OC)c1 (stereo not given) | -8.23%
27 | COc1ccc(NC(=O)Cn2nc(C)c(C(C)=O)c2C)cc1 | 2.67%

Row | Structure (SMILES) | cytotoxicity at 70.5 h
28 | CC(=O)N1CCCC1c1cccc(NCc2ccccc2F)n1 (stereo not given) | -1.09%
29 | CN1CCCCC1c1ncc2c(n1)CCN(Cc1ccc(Cl)c(F)c1)C2 (stereo not given) | -3.53%
30 | CCCN(C(=O)c1ccc(-n2ccnn2)cc1)c1cccnc1 | -3.08%
31 | CC(C)C[C@H](N)c1nnc(SCC(N)=O)o1 | 24.4%
32 | CCc1nc(N2CCC3(CCC(=O)N(CCCO)C3)CC2)no1 | 9.45%
33 | CS(=O)(=O)NCCN1CCSCC1c1ccc(Cl)cc1 (stereo not given) | -2.66%
34 | OCc1cn(Cc2cccc(F)c2)nn1 | -12.4%
35 | Cc1nc(O)cc(C2CCN(C(=O)CN(C)c3ccccc3)CC2)n1 | -3.24%
36 | CCS(=O)(=O)c1ccc2c(c1)OCCO2 | -0.357%
37 | CC(C)CN1C[C@H]2CCN(Cc3cccnc3)CC[C@H]2S1(=O)=O | -10.9%
38 | COCCOc1ccc(NC(=O)N2CCCC2c2ccsc2)cn1 (stereo not given) | -5.25%
39 | O=C(c1ccoc1)N1CCCn2nnc(COCC3CC3)c2C1 | -4.24%
40 | COC(=O)CCCNC(=O)N1CCc2c([nH]c3ccc(Cl)cc23)C1 | -6.07%
41 | CO[C@H]1CN(C(=O)c2ccc3oc(C)cc3c2)C[C@@]12CCCO2 | -3.4%
42 | CCN1CC2(CC1=O)CN(C(=O)N(C)C)CCN(S(C)(=O)=O)C2 (stereo not given) | -10.5%
43 | CCc1nnc2n1CCN(C(=O)c1cc3cc(C)ccc3[nH]1)C2 | -13.6%
44 | Cc1ccc(CN(CCCn2ccnc2)Cc2c(F)cccc2F)s1 | 24%
45 | N#CC1(NC(=O)c2cc(Cl)ccc2OC(F)F)CCOCC1 | -17.7%
46 | Cc1c(C(=O)N2CCN(c3ccccn3)CC2)n(C)c2ccc(Cl)cc12 | -13.6%
47 | CN(C[C@@H]1CCC[C@@H]2CN(Cc3cccnc3)C[C@@H]21)C1CC1 | -1.32%
48 | COc1cc(N2CCC3(CCCN(Cc4ccccn4)C3)C2)ncn1 (stereo not given) | -5.46%
49 | O=C(c1ccncc1)N1CCC(c2nc(O)cc(-c3cccnc3)n2)C1 (stereo not given) | -17.2%
50 | CCn1c(CC2CCN(C(=O)c3cc(C(C)C)n[nH]3)CC2)n[nH]c1=O | -6.21%
51 | CN(Cc1cscn1)C1CCN(C(=O)OC(C)(C)C)CC1 | 29.5%
52 | CC(C)CCn1c(=O)nc2n1C(=O)N(c1ccc(F)cc1)C2 | 22.3%
53 | Cc1n[nH]c(C)c1NC(=O)C1CCCN(C(=O)NCC(C)C)C1 (stereo not given) | -5.82%
54 | O=S(=O)(CCOc1ccc(F)cc1)Nc1cnn(CC(F)F)c1 | -6.59%

Row | Structure (SMILES) | cytotoxicity at 70.5 h
55 | O=C1NC2(CCc3ccccc31)CCN(C(=O)c1ccncc1)C2 (stereo not given) | -3.88%
56 | CN(Cc1nc(C(F)(F)F)cs1)C(=O)CCc1ccccn1 | -1.82%
57 | CC(C)(C)CCCC(=O)NS(=O)(=O)CC1CC1 | -0.428%
58 | CC(=O)NC1CCCN(Cc2ccc(OCc3ccccn3)cc2)C1 (stereo not given) | -6.3%
59 | CCS(=O)(=O)c1ccc(N2CCC(NC(C)=O)CC2)cc1 | -5.9%
60 | CCC(=O)N1CCCN(C(=O)c2cc(C)cc(Br)c2O)CC1 | -1.86%
61 | CC(C)CS(=O)(=O)N1C[C@H]2C[C@H](C(=O)N3CCCC3)[C@@H](C1)O2 | 0.165%
62 | CN(C)CCOCC1CN(C(=O)[C@H]2CCCO2)Cc2ccnn2C1 (stereo not given in full) | -1.09%
63 | O=C(CC1CC1)N1Cc2nccn2CC(CN2CCCC2)C1 (stereo not given) | 16.9%
64 | CCN(C(=O)CCc1ccccc1)C1CC(=O)NC1=O (stereo not given) | 0.716%
65 | c1nc(CCC2CCCCN2)cc(N2CCCC2)n1 (stereo not given) | 1.23%
66 | c1cnc2ccc(C[C@@H]3CC[C@H](CN4CCCOCC4)O3)cc2c1 | -10.1%
67 | CCOc1ccc(NC(C)=O)cc1S(=O)(=O)Nc1cc(C)on1 | -6.08%
68 | Cc1ccc(C)n1-c1c(C(=O)NCC(C)Cn2cccn2)cnn1C (stereo not given) | -21.4%
69 | Cc1cc(C)n(-c2ccccc2NC(=O)NCCCN(C)S(C)(=O)=O)n1 | 5.58%
70 | CCOCc1cc(CNC2CCCc3c2cnn3CC)ccc1OC (stereo not given) | -1.88%
71 | CC(=O)N1CCCC2(CCN(Cc3ccc(Cl)c(C(F)(F)F)c3)C2)C1 (stereo not given) | -5.69%
72 | Cc1cc(NC2CCN(Cc3ccccn3)CC2)n2nc(C)c(C)c2n1 | 0.979%
73 | CCn1c(C)cc(-c2csc(Cn3ccc(=O)[nH]c3=O)n2)c1C | -4.42%
74 | COc1ccc(Cl)cc1NCc1cc(C)on1 | -3.4%
75 | COCc1nc(CNC(=O)c2cc(C)c(C)[nH]c2=O)no1 | 2.71%
76 | O=C(NCc1ccco1)[C@H]1C[C@@H]2CCN(c3cccc(F)c3)C[C@H]2O1 | -5.03%
77 | O=C(c1ccncc1F)N1CCCC1c1nc(-c2ccccc2)n[nH]1 (stereo not given) | -3.44%
78 | CS(=O)(=O)CCN1CC(c2ccccc2)(c2ccccc2)CCC1=O | 22.9%
79 | CC(C)c1nc(N2CC(N3CCCCC3C)C2)c2cnn(C)c2n1 (stereo not given) | 12%
80 | CC(C)N(C)C(=O)C1CCC2(CCNCC2)O1 (stereo not given) | 5.71%
